{"source": "patent US20110059967A1", "about": "“THERAPEUTIC COMPOUNDS” (Allergan Inc., priority 2008, published 2011)", "system": "lashes and adjacent hairs", "assay": "Observation of lashes and adjacent hairs in glaucoma patients treated with bimatoprost in only one eye", "assay_type": "in vivo", "settings": "glaucoma patients taking bimatoprost in only one eye", "source_text": "In the course of treating patients having glaucoma, treatment may only be appropriate in one eye. […] The lash appearance on the lids of the treated eyes would have appeared quite attractive if it represented a bilateral phenomenon. As a result of its asymmetric nature, the long lash'es on one side could be construed as disturbing from a cosmetic standpoint. A systemic examination was preformed as a result of the asymmetric phenomenon. It soon became apparent that this altered appearance was not an isolated finding. […] Definite differences could be identified to varying degrees in the lashes and adjacent hairs of all patients who were taking the drug on a unilateral basis for longer than 6 months.\nThe changes in the lashes were apparent on gross inspection in several patients once attention was focused on the issue. In those with light colored hair and lashes, the differences were only seen easily with the aid of the high magnification and lighting capabilities of the slit lamp biomicroscope. In the course of glaucoma follow-up examination, attention is generally immediately focused on the eye itself. As a result of the high power magnification needed only one eye is seen at a time and the eye is seen at a high enough power that the lashes are not in focus. […]", "note": "Entries after “also recorded” stand apart in the source; their conditions may differ."}
{"smiles": "CCNC(=O)CCC/C=C\\C[C@@H]1[C@@H](/C=C/[C@@H](O)CCc2ccccc2)[C@H](O)C[C@@H]1O", "note": "[bimatoprost]", "values": [{"measurement": "hair growth: lashes of the treated eye compared with the non-treated eye", "result": "longer, thicker, and fuller; also recorded: hair growth is stimulated"}]}
